Experimental data from PMC12264943, “Identification of New Human P2X7 Antagonists Using Ligand- and Structure-Based Virtual Screening” (Journal of Chemical Information and Modeling, 2025).
“Also recorded” adds a separate entry of the source.

Experiments:
Assay type in all cases: cell-based
hP2X7 [1] = molecular target: T1, hP2X7 (Homo sapiens, UniProt Q99572); test: Membrane Potential Red (MPR) dye assay, 1321 N1 cells stably transfected with hP2X7
T1 construct: expressed in transfected cells; host or cells: HEK-293, stably transfected (gift of E. Adinolfi's group, Ferrara University)
T1 sequence (Q99572 1-595): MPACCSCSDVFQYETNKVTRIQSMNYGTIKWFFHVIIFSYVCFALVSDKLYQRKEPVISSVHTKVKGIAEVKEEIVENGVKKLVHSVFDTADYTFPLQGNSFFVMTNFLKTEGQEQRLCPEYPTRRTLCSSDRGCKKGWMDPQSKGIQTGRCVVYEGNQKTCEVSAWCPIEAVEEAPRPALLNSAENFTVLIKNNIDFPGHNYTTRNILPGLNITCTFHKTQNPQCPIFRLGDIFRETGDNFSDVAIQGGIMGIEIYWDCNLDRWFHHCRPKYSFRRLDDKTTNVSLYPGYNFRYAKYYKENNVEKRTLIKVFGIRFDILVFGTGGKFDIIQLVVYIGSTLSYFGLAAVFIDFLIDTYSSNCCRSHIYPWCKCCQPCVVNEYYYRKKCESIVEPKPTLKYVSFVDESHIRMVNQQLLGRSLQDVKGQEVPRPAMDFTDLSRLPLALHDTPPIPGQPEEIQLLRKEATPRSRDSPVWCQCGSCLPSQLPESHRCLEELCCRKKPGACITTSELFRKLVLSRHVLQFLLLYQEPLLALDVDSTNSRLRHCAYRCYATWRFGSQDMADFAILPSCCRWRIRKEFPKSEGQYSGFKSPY
Description: (§1) Astrocytoma 1321 N1 (established by Dr. Gaia Pasqualetto) and HEK-293 (kindly gifted by E. Adinolfi’s group, Ferrara University) both stably transfected with hP2X7, were used to assess the activity of the small molecules selected from the VS. Cells were maintained in DMEM:F12 (PanBiotech) supplemented with 10% FBS, 1% pen-strep, and 150 μg/mL G418 (PanBiotech).
(§2) Cells were plated as described for the YO-PRO 1 dye uptake assay. MPR dye (Molecular Devices) was prepared following the manufacturer’s protocol and diluted 1:10 in ECS-LD buffer. After washing with DPBS, cells were incubated with the dye for 30 min at 37 °C. Fluorescence changes (excitation: 525 nm; emission: 560 nm) were recorded using a Clariostar plate reader during ATP-induced membrane depolarization. Baseline fluorescence was recorded for 5 cycles, and ATP was added via an automated injector (10 μL). Membrane depolarization was quantified as the ratio of the maximal fluorescence change over baseline intensity (Δ(F max–F0)/F0)).
2 Initial screening assays to identify hit compounds. (A) The compounds were screened at 30 μM in the YO-PRO 1 dye uptake using 1321 N1 cells stably transfected with hP2X7. Compound activity was evaluated along a time of 20 min (75 s per cycle) after ATP addition (700 μM). The fluorescence intensity (FI) values of the first 10 cycles were considered for assessing their ability to inhibit hP2X7. Compound responses were normalized to the fluorescent signal recorded on 0.3% DMSO cells treated with 700 μM ATP of each plate. […] (B) Compounds screened at 10 μM using MPR using 1321 N1 cells stably transfected with hP2X7. The compound activity was evaluated for 5 min after ATP addition (15 s per cycle). The fluorescence intensity recorded in the first cycles (before reaching a plateau response) was considered for assessing the small molecule’s ability to inhibit hP2X7. Compound responses were normalized to the fluorescence signal recorded on 0.1% DMSO cells treated with 700 μM ATP of each plate. […] One-way ANOVA and Dunnet test were used for statistical analysis (****P < 0.0001), (*P < 0.02). […]

hP2X7 [2] = molecular target: T1, hP2X7; test: Membrane potential assay with the blue dye (assay optimization); settings: read-out: ATP EC50
Source text: The use of two or more complementary assays for assessing P2X7 modulator activity has been previously applied to help identify false positives as macropore formation is also linked to P2X2 and P2X4. , As P2X receptors are ion channels, they are probably best studied using electrophysiology techniques such as single-cell patch clamp, but these techniques can be laborious when testing libraries of compounds.

hP2X7 [3] = molecular target: T1, hP2X7; test: Membrane Potential Red (MPR) dye assay, 1321 N1 cells stably transfected with hP2X7; settings: compound 10 μM, 700 μM ATP
hP2X7 [4] = molecular target: T1, hP2X7; test: Membrane Potential Red (MPR) dye assay, HEK-293 cells stably transfected with hP2X7; settings: 10 μM, 1 mM ATP, hP2X7 HEK-293
Description: as §1, §2
4 Evaluation of compound 2 and 9 analogue activity using YO-PRO 1 and MPR assays. The activity of compound 2 (A and B) and 9 (C and D) analogues was evaluated in YO-PRO 1 (A and C) and MPR (B and D) assays. The compounds were tested at 10 μM and preincubated for either 20 (YO-PRO 1) or 30 min (MPR). The baseline was recorded for 5 cycles before ATP treatment (1 mM). Fluorescence was recorded for 25 (YO-PRO 1) or 5 min (MPR). The data were normalized by setting as 100% for the fluorescence measured from hP2X7 HEK-293 cells incubated with vehicle (0.1% DMSO) and treated with 1 mM ATP and 0% for the fluorescence recorded by the cells not treated with ATP. The data shown correspond to three independent biological replicates (3 technical replicates per experiment; error bars represent the SEM from the mean values of each biological replicate (n = 3)). The statistical analysis was performed with one-way Anova using Dunnett’s function (P**** < 0.0001; P*** < 0.0003; P** < 0.002; P* < 0.02).

EC50 (hP2X7 [1]; MPR assay, red dye, 1321 N1 hP2X7 cells, one biological replicate, read-out: ATP EC50) [mM] | EC50 (hP2X7 [2]) [mM] | statistically significant inhibition, % of control, initial MPR screen (hP2X7 [1]; compound 10 μM, 700 μM ATP) | SMILES | activity in MPR screen, hP2X7-induced membrane depolarization (hP2X7 [3]) | activity in MPR assay (hP2X7 [4])
0.679 | 2.05 | – | Nc1ncnc2c1ncn2[C@@H]1O[C@H](COP(=O)(O)OP(=O)(O)OP(=O)(O)O)[C@@H](O)[C@H]1O [ATP, reference compound] | – | –
– | – | – | O=C(NCCc1ccccc1)NC(Cc1ccc2c(c1)OCO2)Cc1ccc2c(c1)OCO2 [Compound 2] | active; also recorded: statistically inhibited | –
– | – | 65 % of control | O=C(CSc1ccccc1C(=O)Nc1ccnn1Cc1cccnc1)Nc1ccc2c(c1)OCO2 [Compound 9] | active; also recorded: statistically inhibited | neither compound 9 nor its analogues significantly affected the membrane depolarization; also recorded: lack of inhibition
